We go through 22 compounds from publication PMC6301270 (MedChemComm, 2018).

Series [1] concerns T.b. brucei (strain 427) bloodstream form parasites. The series can be described thus: Trypanosoma brucei assay, dose–response (this study). It counts as cell-based. As to conditions: for IC50: Trypanosoma brucei; for Selectivity index: calculated as IC50(HeLa)/IC50(T.bb).
The subject of the next series is HeLa cells. The series is described as follows: HeLa cell assay (cytotoxicity). The series is classed as cell-based. As to conditions: Homo sapiens, HeLa cells, 48 hours, resazurin, read-out: HeLa IC50. How it is done: HeLa cells were cultured in DMEM medium supplemented with 10% fetal bovine serum and antibiotics (penicillin/streptomycin/amphotericin B) at 37 °C in a 5% CO2 incubator. On the day prior to compound addition, cells were plated in 96-well plates at 2 × 10^4 cells per well. Compounds were added to the cells in 3-fold serial dilutions and incubation at 37 °C in a 5% CO2 incubator continued for 48 hours. Twenty μl resazurin reagent (0.5 mM resazurin in phosphate-buffered saline) was added to each well and, after a 2-hour incubation, fluorescence (Exc560/Em590) was measured in a plate reader. Percentage cell viability in drug-treated wells was calculated from the fluorescent readings obtained relative to those in wells containing control, untreated cells. Plots of % cell viability vs. log[compound] were used to determine IC50 values by non-linear regression analysis using GraphPad Prism.
Background: The colour change of resazurin is a common sign of viable cells or microbes.

For the next series, the system named is T.b. brucei. More on the design: method as in https://www.pathogenbox.org/. As to conditions: Table 1, kinetoplastid category; ref https://www.pathogenbox.org/; read-out: T. brucei brucei IC50 (μM) Pathogen Box; cited from earlier work.
Series [2] relates to T.b. brucei (strain 427) bloodstream form parasites. The series is described as follows: T.b. brucei single concentration screen (10 μM). As to conditions: for viability at 10 µM: Trypanosoma brucei, read-out: T.b.brucei % viability (10 µM); for T.b.brucei % viability (10 µM): single concentration 10 µM, % parasite viability relative to non-treated parasites.
The mark [3] stands for this setting: Table 1, kinetoplastid category, 48 hours at 37 °C, resazurin, read-out: T. brucei brucei IC50 (μM) This study.
The mark [4] stands for this setting: Table 2, remaining Pathogen Box, 48 hours at 37 °C, resazurin, read-out: T. brucei brucei IC50 (μM) This study.
[5] abbreviates: pIC50 values (M), read-out: pIC50 (T.b. brucei), this study (converted).

pIC50: −log10 of the molar value. “Also recorded” adds a separate entry of the source. Where two headings read alike, the source gives them in different places. Where only a bound is given, the exact number is not on record here.

What is called pIC50 is the IC50 on a negative log10 scale, so that one unit is a factor of ten. Broadly, the viability is the share of living cells, or the viability signal relative to a control. Turning to `CC1=Nc2ccc(Cl)cc2C(O)(c2ccc(C)cc2)N1CCN1CCCCC1` (stereo not shown) [Compound 29, CC1=Nc2ccc(Cl)cc2C(O)(N1CCN3CCCCC3)c4ccc(C)cc4], the IC50 (in series [1] (setting [3]); with T.b. brucei) was 0.98 µM in each case. The pIC50 in the series with HeLa cells (Table 1) is 4.82. Further, the viability at 10 µM in series [2] is 2%.

Regarding `O=C(Nc1nc(-c2ccccn2)cs1)c1cncn1-c1ccccc1` [Compound 41, O=C(Nc1nc(cs1)c2ccccn2)c3cncn3c4ccccc4], in series [1] (setting [4]), the IC50 amounted to 1.1 µM. Moreover, in series [1], the Selectivity index is on record as 4.6. Further, the pIC50 in the series with HeLa cells (Table 2) is 5.29. Further, the viability at 10 µM in series [2] was determined as 1%.

On to `CCCn1c(NC(=O)c2ccc3ccccc3n2)nc2ccccc21` [Compound 59, CCCn1c(NC(=O)c2ccc3ccccc3n2)nc4ccccc14], for which the IC50 in series [1] (setting [4]) was determined as 7.1 µM. In series [1], the Selectivity index is given as more than 3.5. Also, the pIC50 with HeLa cells (Table 2) is less than 4.60. In series [2], the viability at 10 µM stood at 2%.

Turning to `Cc1ccc2c(c1C)NC(=O)C21NN=C(c2ccccc2)S1` (stereo not shown) [Compound 54, Cc1ccc2c(NC(=O)C23NN=C(S3)c4ccccc4)c1C], the “T.b. brucei inhibition in words, this study” value (from here on “T.b. brucei inhibition”) in series [1] is on record as “sub-micromolar range”. The IC50 is 1 µM in series [1] (setting [4]) and less than 1 µM in series [1] (setting [5]). Also, the Selectivity index in series [1] is 6.6. In the series with HeLa cells (Table 2), the pIC50 is 5.18. The viability at 10 µM in series [2] came to 3%.

For the compound `CN(C)c1cc(NC(=O)Nc2ccccc2)c2ccccc2n1` [Compound 52, CN(C)c1cc(NC(=O)Nc2ccccc2)c3ccccc3n1], the IC50 in series [1] (setting [4]) was found to be 4.7 µM. Further, in series [1], the Selectivity index is more than 5.3. Besides, the pIC50 in the series on HeLa cells (Table 2) is less than 4.60. The viability at 10 µM in series [2] came to 1%.

With `COC(=O)c1c(NC(=O)c2c(F)c(F)c(F)c(F)c2F)sc2c1CCCCC2` [Compound 38, COC(=O)c1c2CCCCCc2sc1NC(=O)c3c(F)c(F)c(F)c(F)c3F], in series [1] (setting [4]), the IC50 is 11 µM. In series [1], the Selectivity index was more than 2.2. Besides, the pIC50 with HeLa cells (Table 2) is less than 4.60. Also, the viability at 10 µM in series [2] came out at 7%.

With `COc1cccc(-c2nc3c(N4CCCC4)cccc3n2CC2CCCN2)n1` (stereo not shown) [Compound 44, COc1cccc(n1)c2nc3c(cccc3n2CC4CCCN4)N5CCCC5], in series [1] (setting [4]), the IC50 is 4.2 µM. Also, the Selectivity index in series [1] is listed as 5.2. For the same compound, the pIC50 with HeLa cells (Table 2) was 4.66. For the same compound, the viability at 10 µM in series [2] was found to be 4%.

As to `CC(C)C(C(=O)Nc1ccc(S(=O)(=O)N(C)C)cc1)c1ccc(Cl)cc1` (stereo not shown) [Compound 55, CC(C)C(C(=O)Nc1ccc(cc1)S(=O)(=O)N(C)C)c2ccc(Cl)cc2], the IC50 in series [1] (setting [4]) was determined as 6.5 µM. Further, the Selectivity index in series [1] is 1.8. For the same compound, the pIC50 in the series with HeLa cells (Table 2) was 4.92. Also, the viability at 10 µM in series [2] stood at 8%.

In the case of `OCCc1ccc(Nc2nccc(-c3nnc4ccccn34)n2)cc1` [Compound 58, OCCc1ccc(Nc2nccc(n2)c3nnc4ccccn34)cc1], in series [1] (setting [4]), the IC50 stood at 1.5 µM. The Selectivity index in series [1] is given as more than 17. The pIC50 with HeLa cells (Table 2) is less than 4.60. In series [2], the viability at 10 µM was found to be 11%.

As to `CS(=O)(=O)c1ccc(C(=O)N(CC2CCCO2)c2nc3ccccc3s2)cc1[N+](=O)[O-]` (stereo not shown) [Compound 61, CS(=O)(=O)c1ccc(cc1[N+](=O)[O-])C(=O)N(CC2CCCO2)c3nc4ccccc4s3], the IC50 in series [1] (setting [4]) was determined as 11 µM. Further, the Selectivity index in series [1] is reported as more than 2.3. The pIC50 in the series on HeLa cells (Table 2) is less than 4.60. Besides, in series [2], the viability at 10 µM stood at 0%.

With `Cc1cnc(N2CCN[C@@H](Cc3ccccc3)C2)nc1Oc1ccc(-n2ccnc2)cc1` [Compound 45, Cc1cnc(nc1Oc2ccc(cc2)n3ccnc3)N4CCN[C@@H](Cc5ccccc5)C4], the IC50 in series [1] (setting [4]) was determined as 5.1 µM. For the same compound, in series [1], the Selectivity index is more than 4.9. Further, the pIC50 with HeLa cells (Table 2) is less than 4.60. The viability at 10 µM in series [2] was found to be 10%.

Take `CN1CCC(NCc2cccc(-c3ccc(S(=O)(=O)NCc4ccccc4)cc3)c2)CC1` [Compound 56, CN1CCC(CC1)NCc2cccc(c2)c3ccc(cc3)S(=O)(=O)NCc4ccccc4]: the “T.b. brucei inhibition” value in series [1] is reported as “sub-micromolar range; also recorded: activity in the nanomolar range”. The figures for the IC50 in series [1] (setting [4]) and in series [1] (setting [5]) were 0.22 µM and less than 1 µM, respectively. Also, the pIC50 with HeLa cells (Table 2) was 4.89. Also, the viability at 10 µM in series [2] stood at 2%.

For the compound `CC1CCCCN1C(=O)NCCc1coc(-c2ccc(F)cc2)n1` (stereo not shown) [Compound 5, CC1CCCCN1C(=O)NCCc2coc(n2)c3ccc(F)cc3], the IC50 in series [1] (setting [3]) turned out to be 0.05 µM. Further, in the series on HeLa cells (Table 1), the pIC50 was less than 4.60. Moreover, the viability at 10 µM in series [2] was found to be 2.2%.

As to `COc1ccc(OC)c(NCc2ccc3nc(N)nc(N)c3c2Cl)c1` [Compound 48, COc1ccc(OC)c(NCc2ccc3nc(N)nc(N)c3c2Cl)c1], the IC50 in series [1] (setting [4]) is 1.2 µM. Further, the Selectivity index in series [1] was more than 21. Also, the pIC50 in the series on HeLa cells (Table 2) was less than 4.60. In series [2], the viability at 10 µM worked out at 12%.

As to `CC(C)=CCC/C(C)=C\CNCCNC1C2CC3CC(C2)CC1C3` (stereo not shown) [Compound 42, CC(=CCC\C(=C/CNCCNC1C2CC3CC(CC1C3)C2)\C)C], the IC50 in series [1] (setting [4]) was 2.3 µM. The Selectivity index in series [1] is recorded as 6.5. In the series with HeLa cells (Table 2), the pIC50 was 4.82. In addition, the viability at 10 µM in series [2] was found to be 2%.

On to `c1ccc(-c2nc(NC3CCCCC3)cc(C3CC3)n2)nc1` [Compound 35, C1CCC(CC1)Nc2cc(nc(n2)c3ccccn3)C4CC4], for which, in series [1], the “T.b. brucei inhibition” value is listed as “sub-micromolar range; also recorded: activity in the nanomolar range”. For the same compound, the IC50 is 0.83 µM in series [1] (setting [4]) and less than 1 µM in series [1] (setting [5]). For the same compound, the pIC50 in the series on HeLa cells (Table 2) was less than 4.60. Further, in series [2], the viability at 10 µM amounted to 2%.

For `N=C(N)c1ccc(-c2cc(-c3ccccc3)on2)cc1` [Compound 26, NC(=N)c1ccc(cc1)c2cc(on2)c3ccccc3], in the series with T.b. brucei, the IC50 is 4.06 µM. Besides, in series [2], the viability at 10 µM turned out to be 14% and the “T.b.brucei % viability (10 µM)” value was “did not sufficiently reduce cell viability”.

For `Oc1c(I)cc(I)c2cccnc12` [Compound 60, Oc1c(I)cc(I)c2cccnc12], the IC50 in series [1] (setting [4]) was 2 µM. For the same compound, the Selectivity index in series [1] is reported as more than 13. Further, the pIC50 in the series on HeLa cells (Table 2) is less than 4.60. Further, in series [2], the viability at 10 µM worked out at 1%.

Turning to `N=C(N)Nc1ccc(-c2ccc(-c3ccc(NC(=N)N)cc3Cl)o2)c(Cl)c1` [Compound 32, NC(=N)Nc1ccc(c(Cl)c1)c2oc(cc2)c3ccc(NC(=N)N)cc3Cl], in the series on T.b. brucei, the IC50 was 1.03 µM. In series [2], the viability at 10 µM worked out at 17% and the “T.b.brucei % viability (10 µM)” value was “did not sufficiently reduce cell viability”.

Consider `CCN(CC)S(=O)(=O)c1ccc(C(=O)Nc2cc(C)nn2-c2nc(C)c(C)c(=O)[nH]2)cc1` [Compound 27, CC1=C(C)C(NC(N2N=C(C)C=C2NC(C3=CC=C(S(=O)(N(CC)CC)=O)C=C3)=O)=N1)=O], for which the IC50 in the series on T.b. brucei was 5.3 µM. Also, in series [2], the viability at 10 µM is 58% and the “T.b.brucei % viability (10 µM)” value was “did not sufficiently reduce cell viability”.

For the compound `Cc1cc(C2=NOC(c3cc(Cl)c(F)c(Cl)c3)(C(F)(F)F)C2)ccc1C(=O)NCc1ccc2c(c1)C(C)(C)OB2O` (stereo not shown) [Compound 49, Cc1cc(ccc1C(=O)NCc2ccc3B(O)OC(C)(C)c3c2)C4=NOC(C4)(c5cc(Cl)c(F)c(Cl)c5)C(F)(F)F], in series [1] (setting [4]), the IC50 turned out to be 1.2 µM. Further, the Selectivity index in series [1] is recorded as 8.3. Also, in the series on HeLa cells (Table 2), the pIC50 was 5.00. Besides, the viability at 10 µM in series [2] stood at 1%.

With `Cc1ccc2[nH]c(C3CCCNC3)c(-c3ccncc3)c2c1` (stereo not shown) [Compound 36, Cc1ccc2[nH]c(C3CCCNC3)c(c4ccncc4)c2c1], the IC50 in series [1] (setting [4]) was found to be 2.2 µM. Moreover, the Selectivity index in series [1] was 4.0. In addition, the negative logarithm of the IC50 (pIC50) with HeLa cells (Table 2) was 5.05. For the same compound, the viability at 10 µM in series [2] amounted to 1%.
